According to patent US20240342186A1, “PYRIDINE DERIVATIVES WITH N-LINKED CYCLIC SUBSTITUENTS AS cGAS INHIBITORS” (Boehringer Ingelheim International GmbH, priority 2021, published 2024):

How the values were obtained:
[1] = test system: cGAMP-stimulated THP1-Dual cells (pathway directly downstream of cGAS); test: cGAMP stimulated counter cell assay: inhibition of IFN induction in cGAMP-stimulated THP1 cells (THP1(cGAMP) IC50); format: cell-based, human; settings: for IC50: Homo sapiens, THP1-Dual, inhibition of IFN induction in cGAMP-stimulated THP1 cells, read-out: THP1(cGAMP) IC50 (converted); for Ratio THP1(cGAMP) IC50 / THP1(vir) IC50: selectivity for cGAS inhibition
Excerpt: (§1) 6.2 Method: Human cGAS Cell Assay and cGAMP Stimulated Counter Cell Assay (THP1(vir) IC50 and THP1(cGAMP) IC50)
(§2) THP1-Dual™ cells (InvivoGen #thpd-nfis) expressing IRF dependent Lucia luciferase reporter were used as basis for both assays. For the detection of cellular cGAS activity cells were stimulated by a baculovirus (pFastbac-1, Invitrogen, no coding insert) infection that delivers the cGAS enzyme stimulating double-stranded DNA (measurement of THP1(vir) IC50).
(§3) For the counter assay, cells were stimulated by cGAMP (SigmaAldrich #SML1232) to activate the identical pathway independent and directly downstream of cGAS (measurement of THP1(cGAMP) IC50). Pathway activity was monitored by measuring the Lucia luciferase activity induced by either DNA stimulated cGAS enzyme activity (measurement of THP1(vir) IC50) or by cGAMP directly (measurement of THP1(cGAMP) IC50, counter assay).
(§4) Compounds were delivered in 10 mM DMSO solution, serially diluted and transferred to the 384 well assay plate (Greiner #781201) using an Echo acoustic dispenser. Typically, 8 concentrations were used with the highest concentration at 10 μM in the final assay volume followed by ˜1:5 dilution steps. DMSO concentration was set to 1% in the final assay volume. The 384 well assay plate contained 21 test compounds (column 1-22), and DMSO in column 23 and 24.
(§5) Cells, cultivated according to manufacturer conditions, were harvested by centrifugation at 300 g/10 min and were then resuspended and diluted to 1.66E5 cells/ml in fresh cell culture medium (RPMI 1640 (Gibco #A10491-01), 10% FCS (Gibco #10500), 1× GlutaMax (Gibco #35050-061), 1× Pen/Strep solution (Gibco #15140-122), 100 μg/ml Normocin (InvivoGen #ant-nr), 100 μg/ml Zeocin (InvivoGen #ant-zn), 10 μg/ml Blasticidin S (Life Technologies #A11139-03)). The baculovirus solution was then added 1:200 (have varied according to virus batch) to the cells (measurement of THP1(vir) IC50).
(§6) 30 μL of the cell/virus-mix were added to each well of the compound plate from column 1-23 via MultiDrop Combi dispenser (5000 cells/well). In column 24, 30 μl/5000 cells/well without virus were added as a low control.
(§7) The plates were then incubated for 18 h at 37° C. in a humidified incubator.
(§8) Following that, 15 μl of QuantiLuc detection reagent (InvivoGen #rep-qlcg5) were added to each well using a MultiDrop Combi. Measurement was done immediately after the addition using an EnVision reader (US-luminescence read-mode).
(§9) For data evaluation and calculation, the measurement of the low control was set as 0% control and the measurement of the high control was set as 100% control. The IC50 values were calculated using the standard 4 parameter logistic regression formula. Calculation: [y=(a−d)/(1+(x/c)^b)+d], a=low value, d=high value; x=conc M; c=IC50 M; b=slope

[2] = test system: cellular cGAS activity in baculovirus-stimulated THP1-Dual cells (IRF dependent Lucia luciferase reporter); test: Human cGAS cell assay: inhibition of IFN induction in virus-stimulated THP1 cells (THP1(vir) IC50); format: cell-based; settings: Homo sapiens, THP1-Dual; inhibition of IFN induction in virus-stimulated THP1 cells; read-out: THP1(vir) IC50
Excerpt: as §1, §2, §3, §4, §5, §6, §7, §8, §9

[3] = test system: cellular cGAS activity in dsDNA-stimulated human whole blood; test: Human whole blood assay (hWB IC50): IFNα2α production after dsDNA transfection; format: cell-based; settings: inhibition of IFN induction in dsDNA-stimulated human whole blood
Procedure: 6.3 Method: Human Whole Blood Assay (Human WB IC50)
For the detection of cellular cGAS activity human whole blood was stimulated by transfection with double stranded DNA. Pathway activity was monitored by measuring the IFNα2α production.
Compounds were delivered as 10 mM DMSO solution and serially diluted and transferred to the 96-well cell culture plate (Corning #3595), prefilled with 20 μl OptiMEM (Gibco, #11058-021) in each well, using an Echo acoustic dispenser. Typically, 8 concentrations were used with the highest concentration at 10 µM in the final assay volume followed by ˜1:5 dilution steps. DMSO concentration was set to 0.1% in the final assay volume. The 96-well assay plate contained 10 test compounds, and DMSO in control wells.
Collection of human whole blood from 3 or more healthy donors (male or female, no medication for 7 days except contraceptive and thyroxine) as Na-Citrate blood (e.g. 3.8% in Monovettes from Sarstedt) was conducted in parallel. Whole blood was kept at room temperature for a maximum of 3 hours after collection until use in the assay.
160 μl of the whole blood samples was transferred to each well of the 96-well assay plates filled with compound/OptiMEM. All assay plates were prepared as duplicates with blood from different donors. Blood plates were kept at room temperature for 60 minutes and continuous shaking with 450 rpm, covered with the lid, but not sealed.
20 μl OptiMEM and 9.6:1 Fugene was added to all low control wells.
After covering assay plates with aera seals and the lid, blood plates were kept at room temperature for 30 minutes and continuous shaking with 450 rpm, followed by an overnight incubation of 22 h at 37° C. in the incubator, without shaking.
For the detection of IFNα-2α in human plasma, the biotinylated capture antibody (Antibody set IFNA2, Meso Scale Diagnostics #B21VH-3, including coating and capture antibody) was diluted 1:17.5 in Diluent 100 (Meso Scale Diagnostics #R^50AA-4), according to the manufacturer's directions. U-Plex MSD GOLD 96-well Small Spot Strepavidin SECTOR Plates (Meso Scale Diagnostics #L45SA-5) were coated with 25 μl diluted capture antibody. Coated plates were incubated for 60 min at room temperature under continuous shaking at 700 rpm. MSD IFNα-2α plates were washed three times with 150 μl wash buffer (1x HBSS, 0.05% Tween).
After blocking the plates with 100 μl block solution/well (1x HBSS with 0.2% Tween, 2% BSA) for 60 min at room temperature and continuous shaking at 700 rpm, plates were emptied as dry as possible by dumping just before continuing with the human plasma.
Whole Blood assay plates were centrifuged at 1600 rpm for 10 minutes. 25 μl of supernatant was transferred with a pipetting robot from each whole blood plate to the corresponding IFNα-2α plate. Plates were sealed with microplate seals and kept at room temperature again under continuous shaking at 700 rpm for two hours.
Next MSD IFNα-2α plates were washed three times with 150 μl wash buffer (1×HBSS, 0.05% Tween), before adding 25 μl MSD SULFO-TAG IFNα-2α Antibody solution (1:100 diluted in Diluent 3 (Meso Scale Diagnostics #R50AP-2) to each well of the plates.
Afterwards plates were sealed with microplate seals and kept at room temperature again under continuous shaking at 700 rpm for two hours. Finally, MSD IFNα-2α plates were washed three times with 150 μl wash buffer (1×HBSS, 0.05% Tween). 150 μl 2× Read buffer was added to each well and plates were immediately measured with the MSD Sector S600 Reader using the vendor barcode.
For data evaluation and calculation, % control calculation of each well was based on the mean of high (DNA stimulated control) and mean of low (unstimulated control) controls by using the following formula:
[counts(sample)−counts(low))/(counts(high)−counts(low))]*100
The IC50 values were calculated using the standard 4 parameter logistic regression formula. Calculation: [y=(a−d)/(1+(x/c)^b)+d], a=low value, d=high value; x=conc M; c=IC50 M; b=slope

cGAS = cGAS (Homo sapiens (Human), UniProt Q8N884); test: Human cGAS enzyme assay (hcGAS IC50, in vitro), cGAMP formation by RapidFire MS; format: biochemical; settings: biochemical (in vitro) cGAS inhibition;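 also: enzyme activated by 45 bp dsDNA with GTP and ATP (30 µM each), 60 min compound pre-incubation then 90 min reaction, cGAMP relative to cyclic-di-GMP internal standard, 8-point dilutions up to 10 µM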
Chain of cGAS (Q8N884 whole entry): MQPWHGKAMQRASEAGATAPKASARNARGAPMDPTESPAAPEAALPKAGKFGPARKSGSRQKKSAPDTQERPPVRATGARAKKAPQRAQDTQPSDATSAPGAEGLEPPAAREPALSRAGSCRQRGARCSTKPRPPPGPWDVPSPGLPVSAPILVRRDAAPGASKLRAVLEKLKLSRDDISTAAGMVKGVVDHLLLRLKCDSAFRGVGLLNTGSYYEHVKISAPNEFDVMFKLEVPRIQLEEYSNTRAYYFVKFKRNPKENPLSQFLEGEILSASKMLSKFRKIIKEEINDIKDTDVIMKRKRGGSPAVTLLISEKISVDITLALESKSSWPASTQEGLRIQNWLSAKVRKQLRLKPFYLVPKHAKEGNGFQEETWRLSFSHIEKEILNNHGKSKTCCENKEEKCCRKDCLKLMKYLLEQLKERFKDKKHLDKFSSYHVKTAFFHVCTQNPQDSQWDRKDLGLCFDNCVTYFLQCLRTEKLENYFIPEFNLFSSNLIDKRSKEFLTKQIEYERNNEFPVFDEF

IC50 [2] | IC50 [3] | IC50 (cGAS) | SMILES | IC50 [1] | Ratio THP1(cGAMP) IC50 / THP1(vir) IC50 [1]
500 nM | 629 nM | 3 nM | C[C@H]1COCCN1c1cc(Br)cnc1O[C@H]1C[C@@H](C(=O)O)N(c2nc(C(F)F)nc3c2oc2ccccc23)C1 [Example 1.28] | > 16600 nM | >33
296 nM | 61 nM | 4 nM | C#Cc1cnc(O[C@H]2C[C@@H](C(=O)O)N(c3nc(C)nc4c3oc3ccccc34)C2)c(N2CCOC[C@@H]2C)c1 [Example 1.29] | > 16600 nM | >56
159 nM | 80 nM | 3 nM | C#Cc1cnc(O[C@H]2C[C@@H](C(=O)O)N(c3nc(C(F)(F)F)nc4c3oc3ccccc34)C2)c(N2CCOC[C@@H]2C)c1 [Example 1.30] | 22100 nM | 139
232 nM | 102 nM | 3 nM | C#Cc1cnc(O[C@H]2C[C@@H](C(=O)O)N(c3nc(C(F)F)nc4c3oc3ccccc34)C2)c(N2CCOC[C@@H]2C)c1 [Example 1.31] | > 16600 nM | >72
15 nM | 252 nM | 3 nM | C[C@@H]1N(c2cc(Br)cnc2O[C@H]2C[C@@H](C(=O)O)N(c3nc(C(F)(F)F)nc4c3oc3ccccc34)C2)CCOC12CC2 [Example 1.33] | > 10000 nM | 677
19 nM | 51 nM | 3 nM | C[C@@H]1N(c2cc(F)cnc2O[C@H]2C[C@@H](C(=O)O)N(c3nc(C(F)(F)F)nc4c3oc3ccccc34)C2)CCOC12COC2 [Example 1.34] | > 10000 nM | 514
858 nM | 506 nM | 8 nM | C#Cc1cnc(O[C@H]2C[C@@H](C(=O)O)N(c3nc(C(F)F)nc4c3oc3ccccc34)C2)c(N2CCOCC2)c1 [Example 2.01, (2S,4S)-1-[4-(Difluoromethyl)-8-oxa-3,5-diazatricyclo[7.4.0.0^2,7]trideca-1(13),2,4,6,9,11-hexzen-6-yl]-4-{[5-ethynyl-3-(morpholin-4-yl)pyridin-2yl]oxy}-pyrrolidine-2-carboxylic acid] | > 16600 nM | >19
752 nM | 1030 nM | 7 nM | C#Cc1cnc(O[C@H]2C[C@@H](C(=O)O)N(c3nc(C(F)(F)F)nc4c3oc3ccccc34)C2)c(N2CCOCC2)c1 [Example 2.02] | > 16600 nM | >22
3 nM | 5 nM | 1 nM | C#Cc1cnc(O[C@H]2C[C@@H](C(=O)O)N(c3nc(CF)nc4c3oc3ccccc34)C2)c(N2CCOC3(COC3)[C@@H]2C)c1 [Example 2.04] | 25400 nM | 8125
4 nM | 8 nM | 2 nM | C#Cc1cnc(O[C@H]2C[C@@H](C(=O)O)N(c3nc(Cl)nc4c3oc3ccccc34)C2)c(N2CCOC3(COC3)[C@@H]2C)c1 [Example 2.05] | 10800 nM | 3018
63 nM | 52 nM | 4 nM | C#Cc1cnc(O[C@H]2C[C@@H](C(=O)O)N(c3nc(C)nc4c3oc3cc(C(F)F)ccc34)C2)c(N2CCOC3(COC3)[C@@H]2C)c1 [Example 2.06] | 11900 nM | 189
14 nM | 28 nM | 3 nM | C#Cc1cnc(O[C@H]2C[C@@H](C(=O)O)N(c3nc(C)nc4c3oc3cc(Cl)ccc34)C2)c(N2CCOC3(COC3)[C@@H]2C)c1 [Example 2.07] | 14500 nM | 1005
< 5 nM | 6 nM | 3 nM | C#Cc1cnc(O[C@H]2C[C@@H](C(=O)O)N(c3nc(C)nc4c3oc3cc(F)ccc34)C2)c(N2CCOC3(COC3)[C@@H]2C)c1 [Example 2.08] | 18800 nM | 3490
31 nM | 37 nM | 6 nM | C#Cc1cnc(O[C@H]2C[C@@H](C(=O)O)N(c3nc(C(F)(F)F)nc4c3oc3cc(CC)ccc34)C2)c(N2CCOC3(COC3)[C@@H]2C)c1 [Example 2.09] | 5180 nM | 166
5 nM | 24 nM | 3 nM | C#Cc1cnc(O[C@H]2C[C@@H](C(=O)O)N(c3nc(CCl)nc4c3oc3ccccc34)C2)c(N2CCOC3(COC3)[C@@H]2C)c1 [Example 2.10] | 2750 nM | 533
